# Measurements published in patent publication US11766468B2, “Method of treating prostate cancer with GnRH antagonist” (priority 2012, dated 2023).
# Square brackets hold non-standard residues; d marks the D form. Peptide text beside a SMILES is read from it. * marks the point of attachment. dPhe(4-NHCONH2) = NC(=O)Nc1ccc(C[C@@H](N)C(=O)O)cc1; Dihydroorotyl(S) = O=C1C[C@@H](C(=O)*)NC(=O)N1; dPhe(4-Cl) = N[C@H](Cc1ccc(Cl)cc1)C(=O)O; Phe(4-NH2) = Nc1ccc(C[C@H](N)C(=O)O)cc1; d2Nal = N[C@H](Cc1ccc2ccccc2c1)C(=O)O; Lys(iPr) = CC(C)NCCCC[C@H](N)C(=O)O; d3Pal = N[C@H](Cc1cccnc1)C(=O)O
# Legend:
# clinical = conditions: human, in vivo, sc
# Procedure: Median degarelix trough concentrations in the maintenance phase with 80 mg at a concentration of 20 mg/mL was 10.9 ng/mL.
# The long half-life after subcutaneous administration is a consequence of a very slow release of degarelix from the depot formed at the injection site(s). The pharmacokinetic behavior of the drug is strongly influenced by its concentration in the injection formulation.
# [1] = set-up: species or system human; conditions: in vivo
# From the text: Plasma protein binding is estimated to be approximately 90%.
# human CYP450 system = format: in vitro ADME
# testosterone = test: Example 2: serum testosterone (LC-MS/MS); format: in vivo, human; conditions: from Day 28 (Month 1)
# Procedure: Serum testosterone was typically measured at baseline and then monthly in all cases. Serum testosterone was measured at a central laboratory using a validated liquid chromatography system with a tandem mass spectrometry assay with a lower limit of quantitation of 3 ng/dl.
# [2] = in vivo
# Procedure: In this example, a study was conducted to investigate the risk of cardiovascular events when ADT is utilized by a GnRH antagonist versus agonist in patients with or without a history of cardiovascular events.
# Specifically, this study utilized available data yielding a safety database of 2328 PCa (prostate cancer) patients who participated in randomized clinical trials and received treatment with either degarelix or a GnRH agonist for up to 12 months (13 treatment months).
# The study is based on data from two completed Phase 3 and 4 Phase 3b trials, all of which used an active comparator in form of a GnRH agonist. In each study, the primary inclusion criteria were male subjects ≥8 years of age with histologically confirmed adenocarcinoma of the prostate in whom ADT was indicated and a life expectancy of minimum 12 months could be anticipated. All subjects had serum testosterone levels that were either within the age-specified normal range or above the lower limit of the normal range of the central laboratory and ECOG score ≤2. Exclusion criterion ensured that none of the subjects had received long-term ADT (>6 months) before study entry.
# Baseline evaluation included thorough collection of the main demographic characteristics (age, weight, height), lifestyle factors (smoking and drinking habits), and major CV risk factors (treated type 2 diabetes, treated hyperlipidemia, treated hypertension, and systolic and diastolic blood pressure). Patients also underwent physical examination and ECG assessment for potential cardiac morbidities. Medical history of CV events was captured by the following Standardized MedDRA Queries (myocardial infarction, ischemic heart diseases, ischemic stroke, hemorrhagic stroke, other arterial thrombotic/embolic events).
# Cardiovascular events of interest were collected prospectively, typically at monthly visits, as adverse events or serious adverse events with date of occurrence. These events were coded using standard MedDRA terms and grouped into one of the same categories as those used to collect medical history.
# The CV event rates in agonist and antagonist-treated patients were analyzed by 1-Kaplan-Meier plots of time to first-reported CV events and compared with log-rank test. The analysis was performed separately for strata of patients with or without history of CV events. To identify independent predictors of CV events we applied multivariate Cox proportional hazards models.
# To further explore the apparent independent role of treatment choice and identify independent modifiable risk factors, this study established Cox proportional hazard models including CV events occurring during treatment as dependent variable and age, history of CV event, drinking (i.e., high alcohol consumption or abstinence) and smoking habits, hypertension, serum testosterone level and PCa disease stage as independent variables.
# [3] = human, in vivo
# From the text: Safety data from all clinical trials with degarelix in the treatment of prostate cancer, including patients receiving other dosing regimens, were pooled.
# [4] = in vivo; remark: listed apart in the source
# Procedure: Laboratory parameters (Table 4) were recorded at screening and during the study.
compound,measurement,setting,value
"CC(=O)N[C@H](Cc1ccc2ccccc2c1)C(=O)N[C@H](Cc1ccc(Cl)cc1)C(=O)N[C@H](Cc1cccnc1)C(=O)N[C@@H](CO)C(=O)N[C@@H](Cc1ccc(NC(=O)[C@@H]2CC(=O)NC(=O)N2)cc1)C(=O)N[C@H](Cc1ccc(NC(N)=O)cc1)C(=O)N[C@@H](CC(C)C)C(=O)N[C@@H](CCCCNC(C)C)C(=O)N1CCC[C@H]1C(=O)N[C@H](C)C(N)=O [Degarelix, D-Alaninamide, N-acetyl-3-(2-naphthalenyl)-D-alanyl-4-chloro-D-phenylalanyl-3-(3-pyridinyl)-D-alanyl-L-seryl-4-[[[(4S)-hexahydro-2,6-dioxo-4-pyrimidinyl]carbonyl]amino]-L phenylalanyl-4-[(aminocarbonyl)amino]-D-phenylalanyl-L leucyl-N6-(1-methylethyl)-L-lysyl-L-prolyl] (Ac-[d2Nal][dPhe(4-Cl)][d3Pal]S[Phe(4-NH2)](Dihydroorotyl(S))[dPhe(4-NHCONH2)]L[Lys(iPr)]P[dA]-NH2)",metabolites in plasma samples,clinical,No significant metabolites were detected
same,Median degarelix trough concentration,"clinical; male, 80 mg",10.9 ng/mL
same,AUC,"clinical; male, 240 mg",29800 ng·h/mL
same,distribution volume,[1],approximately 1 L/kg
same,fraction excreted via the hepato-biliary system,[1],approximately 80%
same,fraction of dose renally excreted,[1],approximately 20%
same,substrate for the human CYP450 system,human CYP450 system,not a substrate for the human CYP450 system
same,median testosterone level,testosterone,< 0.5 ng/mL
same,"Any CV adverse event, % (adverse events E)",[2],6.0%
same,"Any CV adverse event, % of patients with adverse events",[2],2.9%
same,"Any CV adverse event, E = Number of adverse events",[2],90
same,"Any CV adverse event, N = Number of patients with adverse events",[2],44
same,"HR for CV event, degarelix versus the agonist",[2],0.62
same,"HR for CV event, degarelix vs agonist",[2],0.49
same,"Hemorrhagic stroke, % (adverse events E)",[2],0.2%
same,"Hemorrhagic stroke, % of patients with adverse events",[2],0.2%
same,"Hemorrhagic stroke, E = Number of adverse events",[2],3
same,"Hemorrhagic stroke, N = Number of patients with adverse events",[2],3
same,"Ischemic heart disease, % (adverse events E)",[2],1.8%
same,"Ischemic heart disease, % of patients with adverse events",[2],1.7%
same,"Ischemic heart disease, E = Number of adverse events",[2],27
same,"Ischemic heart disease, N = Number of patients with adverse events",[2],25
same,"Ischemic stroke, % (adverse events E)",[2],1.1%
same,"Ischemic stroke, % of patients with adverse events",[2],0.9%
same,"Ischemic stroke, E = Number of adverse events",[2],16
same,"Ischemic stroke, N = Number of patients with adverse events",[2],14
same,"Myocardial infarction, % (adverse events E)",[2],1.0%
same,"Myocardial infarction, % of patients with adverse events",[2],0.8%
same,"Myocardial infarction, E = Number of adverse events",[2],15
same,"Myocardial infarction, N = Number of patients with adverse events",[2],13
same,"Other embolic or thrombotic events, arterial, % (adverse events E)",[2],1.9%
same,"Other embolic or thrombotic events, arterial, % of patients with adverse events",[2],1.5%
same,"Other embolic or thrombotic events, arterial, E = Number of adverse events",[2],29
same,"Other embolic or thrombotic events, arterial, N = Number of patients with adverse events",[2],23
same,risk of a CV event lower if taking degarelix versus the agonist,[2],38%
same,"drug-related erectile dysfunction, gynaecomastia, hyperhidrosis, testicular atrophy, diarrhea: % of patients",[3],≥ 1%
same,changes in liver function,[4],no evidence of any clinically significant changes in liver function
